Measured values reported in publication PMC10746280, “Bacterial efflux pump modulators prevent bacterial growth in macrophages and under broth conditions that mimic the host environment” (mBio, 2023).

Experiments:
[1] = system: RAW 264.7 macrophages; assay: SAFIRE macrophage assay: host toxicity (adherent macrophage count, morphology); assay type: cell-based
Summary of the method: (§1)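 RAW 264.7 macrophages infected with S. Typhimurium SL1344 sifB::gfp (MOI ~30), gentamicin 40 µg/mL, then compound from 2 h to 18 h post-infection. Confocal imaging with MitoTracker and DAPI; toxicity as adherent MitoTracker-positive macrophage count, bacterial load as GFP+ macrophage area.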

[2] = system: S. Typhimurium SL1344 (sifB::gfp) in RAW 264.7 macrophages; assay: SAFIRE macrophage assay: intracellular bacterial load (GFP signal within macrophages); assay type: cell-based, Salmonella enterica serotype Typhimurium
Summary of the method: as §1

[3] = 5 uM, 'Toxic' given instead of a score
[4] = 25 uM, 'Toxic' given instead of a score
[5] = 5 uM compound, n=1, DMSO solvent control = 100
[6] = 25 uM compound, n=1, DMSO solvent control = 100
[7] = 5 uM compound, n=1, DMSO solvent control = 98, rifampicin 2 μg/mL = 65
[8] = 25 uM compound, n=1, DMSO solvent control = 98, rifampicin 2 μg/mL = 65

SMILES: NC(=O)[C@H]1CC[C@@H](NCC(O)COc2ccc(Cl)c(Cl)c2)C1 (stereo partly drawn) [CU066]
- 5 uM Avg Cell # Score ([1]; 5 uM): 91
- 25 uM Avg Cell # Score ([1]; 25 uM): 86
- 5 uM Avg Antibacterial Score [2, 3]: 103
- 25 uM Avg Antibacterial Score [2, 4]: 100

SMILES: NC(=O)N1CCN(CC(O)COc2ccc(Cl)c(Cl)c2)CC1 (stereo not drawn) [CU067]
- 5 uM Avg Cell # Score ([1]; 5 uM): 79
- 25 uM Avg Cell # Score ([1]; 25 uM): 88
- 5 uM Avg Antibacterial Score [2, 3]: 104
- 25 uM Avg Antibacterial Score [2, 4]: 101

SMILES: OC(CNCc1csc(Cl)c1)COc1ccc(Cl)c(Cl)c1 (stereo not drawn) [CU155]
- 5 uM Avg Cell # Score ([1]; 5 uM): 95
- 25 uM Avg Cell # Score ([1]; 25 uM): 78
- 5 uM Avg Antibacterial Score [2, 3]: 107
- 25 uM Avg Antibacterial Score [2, 4]: Toxic

SMILES: CC(C)N(CCNc1nccc(C(F)(F)F)n1)CC(O)COc1ccc(Cl)c(Cl)c1 (stereo not drawn) [CU072]
- 5 uM Avg Cell # Score ([1]; 5 uM): 62
- 25 uM Avg Cell # Score ([1]; 25 uM): 94
- 5 uM Avg Antibacterial Score [2, 3]: Toxic
- 25 uM Avg Antibacterial Score [2, 4]: Toxic

SMILES: NCCC1CCN(CC(O)COc2cc(Cl)cc(Cl)c2)CC1 (stereo not drawn) [CU250]
- 5 uM Avg Cell # Score [1, 5]: 115
- 25 uM Avg Cell # Score [1, 6]: 26
- 5 uM Avg Antibacterial Score [2, 7]: 20
- 25 uM Avg Antibacterial Score [2, 8]: Toxic

SMILES: OC(COc1ccccc1C(F)(F)F)CN1CCC(Nc2nccc(C(F)(F)F)n2)CC1 (stereo not drawn) [CU106]
- 5 uM Avg Cell # Score ([1]; 5 uM): 79
- 25 uM Avg Cell # Score ([1]; 25 uM): 44
- 5 uM Avg Antibacterial Score [2, 3]: 8
- 25 uM Avg Antibacterial Score [2, 4]: Toxic

SMILES: OC(COc1ccc(F)cc1F)CN1CCC(Nc2ncccn2)CC1 (stereo not drawn) [CU048]
- 5 uM Avg Cell # Score ([1]; 5 uM): 85
- 25 uM Avg Cell # Score ([1]; 25 uM): 159
- 5 uM Avg Antibacterial Score [2, 3]: 105
- 25 uM Avg Antibacterial Score [2, 4]: 95

SMILES: N[C@H]1CC[C@H](N2CC(COc3cc(Cl)cc(Cl)c3)OC2=O)CC1 (stereo partly drawn) [CU219]
- 5 uM Avg Cell # Score ([1]; 5 uM): 137
- 25 uM Avg Cell # Score ([1]; 25 uM): 123
- 5 uM Avg Antibacterial Score [2, 3]: 93
- 25 uM Avg Antibacterial Score [2, 4]: 22

SMILES: OC(COc1ccc(Cl)cc1Cl)CN1CCC(Nc2nccc(C(F)(F)F)n2)C1 (stereo not drawn) [CU087]
- 5 uM Avg Cell # Score ([1]; 5 uM): 98
- 25 uM Avg Cell # Score ([1]; 25 uM): 78
- 5 uM Avg Antibacterial Score [2, 3]: 36
- 25 uM Avg Antibacterial Score [2, 4]: Toxic

SMILES: OC(COc1ccc(Cl)c(Cl)c1)CN1CCN(CC2CC2)CC1 (stereo not drawn) [CU183]
- 5 uM Avg Cell # Score ([1]; 5 uM): 103
- 25 uM Avg Cell # Score ([1]; 25 uM): 105
- 5 uM Avg Antibacterial Score [2, 3]: 92
- 25 uM Avg Antibacterial Score [2, 4]: 25

SMILES: CC(=O)N(CCNc1nccc(C(F)(F)F)n1)CC(O)COc1ccc(Cl)c(Cl)c1 (stereo not drawn) [CU071]
- 5 uM Avg Cell # Score ([1]; 5 uM): 62
- 25 uM Avg Cell # Score ([1]; 25 uM): 56
- 5 uM Avg Antibacterial Score [2, 3]: 85
- 25 uM Avg Antibacterial Score [2, 4]: Toxic

SMILES: O[C@@H](COc1ccc(Cl)c(Cl)c1)CN1CCCC1 [CU254]
- 5 uM Avg Cell # Score [1, 5]: 119
- 25 uM Avg Cell # Score [1, 6]: 125
- 5 uM Avg Antibacterial Score [2, 7]: 89
- 25 uM Avg Antibacterial Score [2, 8]: 51

SMILES: NC1CCN(CC(O)COc2ccc(Cl)cc2)C1 (stereo not drawn) [CU165]
- 5 uM Avg Cell # Score ([1]; 5 uM): 105
- 25 uM Avg Cell # Score ([1]; 25 uM): 109
- 5 uM Avg Antibacterial Score [2, 3]: 63
- 25 uM Avg Antibacterial Score [2, 4]: 32

SMILES: OC(COc1cccc2ccccc12)CN1CCC(Nc2nccc(C(F)(F)F)n2)CC1 (stereo not drawn) [CU079]
- 5 uM Avg Cell # Score ([1]; 5 uM): 86
- 25 uM Avg Cell # Score ([1]; 25 uM): 89
- 5 uM Avg Antibacterial Score [2, 3]: 6.41
- 25 uM Avg Antibacterial Score [2, 4]: Toxic

SMILES: OC1CCN(CC(O)COc2ccc(Cl)c(Cl)c2)CC1 (stereo not drawn) [CU164]
- 5 uM Avg Cell # Score ([1]; 5 uM): 98
- 25 uM Avg Cell # Score ([1]; 25 uM): 126
- 5 uM Avg Antibacterial Score [2, 3]: 106
- 25 uM Avg Antibacterial Score [2, 4]: 82

SMILES: OC(COc1ccc(Cl)c(Cl)c1)CN1CCN(c2nccc(C(F)(F)F)n2)CC1 (stereo not drawn) [CU061]
- 5 uM Avg Cell # Score ([1]; 5 uM): 74
- 25 uM Avg Cell # Score ([1]; 25 uM): 101
- 5 uM Avg Antibacterial Score [2, 3]: Toxic
- 25 uM Avg Antibacterial Score [2, 4]: Toxic

SMILES: N[C@H]1CC[C@@H](N2CC(COc3cc(Cl)cc(Cl)c3)OC2=O)CC1 (stereo partly drawn) [CU218]
- 5 uM Avg Cell # Score ([1]; 5 uM): 163
- 25 uM Avg Cell # Score ([1]; 25 uM): 131
- 5 uM Avg Antibacterial Score [2, 3]: 83
- 25 uM Avg Antibacterial Score [2, 4]: 15

SMILES: OC(COc1ccc(Cl)c(Cl)c1)CN1CCC(F)C1 (stereo not drawn) [CU125]
- 5 uM Avg Cell # Score ([1]; 5 uM): 81
- 25 uM Avg Cell # Score ([1]; 25 uM): 86
- 5 uM Avg Antibacterial Score [2, 3]: 102
- 25 uM Avg Antibacterial Score [2, 4]: 73

SMILES: NCC1CCN(CC(O)COc2ccc(Cl)c(Cl)c2)CC1 (stereo not drawn) [CU205]
- 5 uM Avg Cell # Score ([1]; 5 uM): 131
- 25 uM Avg Cell # Score ([1]; 25 uM): 13
- 5 uM Avg Antibacterial Score [2, 3]: 12
- 25 uM Avg Antibacterial Score [2, 4]: Toxic

SMILES: N#Cc1ccccc1OCC(O)CN1CCC(Nc2nccc(C(F)(F)F)n2)C1 (stereo not drawn) [CU093]
- 5 uM Avg Cell # Score ([1]; 5 uM): 93
- 25 uM Avg Cell # Score ([1]; 25 uM): 79
- 5 uM Avg Antibacterial Score [2, 3]: 102
- 25 uM Avg Antibacterial Score [2, 4]: 58

SMILES: OC(COc1ccc(Cl)c(Cl)c1)CN1CCC(Nc2nccs2)CC1 (stereo not drawn) [CU051]
- 5 uM Avg Cell # Score ([1]; 5 uM): 123
- 25 uM Avg Cell # Score ([1]; 25 uM): 105
- 5 uM Avg Antibacterial Score [2, 3]: 58
- 25 uM Avg Antibacterial Score [2, 4]: 45

SMILES: NC1CCN(CC(O)COc2ccc(Cl)cc2Cl)C1 (stereo not drawn) [CU166]
- 5 uM Avg Cell # Score ([1]; 5 uM): 105
- 25 uM Avg Cell # Score ([1]; 25 uM): 108
- 5 uM Avg Antibacterial Score [2, 3]: 44
- 25 uM Avg Antibacterial Score [2, 4]: 19

SMILES: Cc1nnc(CN(C)CC(O)COc2ccc(Cl)c(Cl)c2)o1 (stereo not drawn) [CU130]
- 5 uM Avg Cell # Score ([1]; 5 uM): 100
- 25 uM Avg Cell # Score ([1]; 25 uM): 73
- 5 uM Avg Antibacterial Score [2, 3]: 98
- 25 uM Avg Antibacterial Score [2, 4]: 85

SMILES: OC(COc1cccc(Br)c1)CN1CCC(Nc2nccc(C(F)(F)F)n2)C1 (stereo not drawn) [CU113]
- 5 uM Avg Cell # Score ([1]; 5 uM): 92
- 25 uM Avg Cell # Score ([1]; 25 uM): 49
- 5 uM Avg Antibacterial Score [2, 3]: 68
- 25 uM Avg Antibacterial Score [2, 4]: Toxic

SMILES: OC(CNC1Cc2ccccc2C1)COc1ccc(Cl)c(Cl)c1 (stereo not drawn) [CU159]
- 5 uM Avg Cell # Score ([1]; 5 uM): 117
- 25 uM Avg Cell # Score ([1]; 25 uM): 97
- 5 uM Avg Antibacterial Score [2, 3]: 102
- 25 uM Avg Antibacterial Score [2, 4]: Toxic

SMILES: OC(COc1ccc(Cl)c(Cl)c1)CN1CCCNCC1 (stereo not drawn) [CU145]
- 5 uM Avg Cell # Score ([1]; 5 uM): 94
- 25 uM Avg Cell # Score ([1]; 25 uM): 120
- 5 uM Avg Antibacterial Score [2, 3]: 69
- 25 uM Avg Antibacterial Score [2, 4]: 39

SMILES: COc1ccc(OCC(O)CN2CCC(N)C2)cc1 (stereo not drawn) [CU152]
- 5 uM Avg Cell # Score ([1]; 5 uM): 116
- 25 uM Avg Cell # Score ([1]; 25 uM): 142
- 5 uM Avg Antibacterial Score [2, 3]: 103
- 25 uM Avg Antibacterial Score [2, 4]: 91
